# ChEMBL document CHEMBL3507680, “University of Dundee, Gates Library screen for HepG2 cell viability”
# Assay: Human HepG2 cell viability assay in 384 well format
# Format: toxicity, cell-based
# Design: dose 125 nL, time 70.5 hour; concentration not given beside the values
# Details: HepG2 cells, read-out: Inhibition
row,SMILES,cytotoxicity at 70.5 h [%]
1,COc1ccc(OC)c(C2CCN(C(=O)CCc3n[nH]c(N)n3)C2)c1 (stereo unspecified),12.4
2,CC1(C)CN(C(=O)c2ccccc2-n2cncn2)CC1(C)O (stereo unspecified),18.2
3,Cc1ccc2nc(CN3CCN(C4CCCC4)C(=O)C3)cc(O)c2c1,9.29
4,c1cncc(-c2noc(CCNc3ncnc4c3CCNCC4)n2)c1,-7.7
5,CC(=O)N1C[C@H](NC(=O)c2ccnc(N)c2)[C@@H](C(C)C)C1,3.14
6,Cc1ccc(C)c2c1NC(=O)C2CC(=O)O (stereo unspecified),2.65
7,COCCn1ccnc1C1CCCN(C(=O)c2cc(F)cc(F)c2)C1 (stereo unspecified),-3.01
8,Cc1cc(N2CCC(N3CCOCC3)C2)n2nc(C)c(C)c2n1 (stereo unspecified),-4.03
9,O=C(c1cnc(O)cc1O)N1CCCC(CCc2ccccc2F)C1 (stereo unspecified),-11.4
10,O=C(CCn1cccn1)N1CCC(C2CCN(c3ncccn3)CC2)C1 (stereo unspecified),-6.6
11,CCC[C@@H]1CN(Cc2cc3c(cc2OC)OCO3)C[C@H]1C(=O)O,-2.47
12,CCN(Cc1ccncc1)C1CCCN(C/C=C/c2ccc(F)cc2)C1 (stereo unspecified),-3.49
13,OCC1(Cc2ccc(Cl)cc2)CCN(Cc2ccccc2O)CC1,-4.64
14,Cc1cc(C(=O)N2C[C@H]3CCC[C@@]3(CO)C2)c2ccc(F)cc2n1,-1.1
15,Cc1cccc(C(C(=O)N2CCN(C(=O)c3ccc[nH]3)CC2)N(C)C)c1 (stereo unspecified),-8.99
16,COc1ccccc1OC1CN(C(=O)C(c2ccccc2F)N(C)C)C1 (stereo unspecified),-0.928
17,CC(=O)Nc1cccc(C(=O)N(C)C(C)Cc2cc(C)ccn2)c1 (stereo unspecified),-2.97
18,CCN(CC)C(=O)Cn1cc(-c2nc(C(C)C)no2)nn1,-9.42
19,COc1ccc(-c2ncc(-c3nccn3CCN(C)C)cn2)cc1,-10.5
20,COc1nccnc1-c1cc(NC2CCCC2)nc2[nH]ccc12,-16.1
21,CCc1nnc(N2CCN(CCc3ccccc3)C(=O)C2)o1,-2.76
22,COc1ncccc1-c1cc(C(=O)NC2CC2)ccn1,-8.1
23,CC(C)N1CCC(CC(=O)N(C)C(C)c2cncs2)CC1 (stereo unspecified),-15.3

row,SMILES,cytotoxicity at 70.5 h [%]
1,CCc1cc(C(=O)NCC2CCN(Cc3cccc(C#N)c3)C2)on1 (stereo unspecified),-1.72
2,O=C(NCC1CCN(Cc2cc3ccccc3[nH]2)C1)c1ccsc1 (stereo unspecified),-9.16
3,COc1cccn(CC(=O)N(C)CCCOc2c(C)cccc2C)c1=O,29.5
4,C[C@@H]1CN(C(=O)CCCn2nnc(-c3ccc(F)cc3)n2)C[C@]1(C)O,22.7
5,CC(C)(C)c1cc(=O)[nH]c(-c2ccccc2CN2CCCCCC2)n1,-3.97
6,Nc1ccnc(N2C[C@@H]3CC[C@H](C2)N(CC2CCC2)C3=O)n1,-3.52
7,Cc1[nH]c(=O)[nH]c(=O)c1CC(=O)N1CCC(Oc2ccc(F)cc2)CC1,-12.2
8,COc1ccc([C@@H]2C[C@H](NC(C)=O)C[C@H](CCc3ccccc3)O2)cn1,-4.78
9,O=c1cc(N2CCCCC2)cnn1CCCn1cccn1,4.12
10,Cc1ccc(CN(C)c2nccc(-c3cn(C)nc3C)n2)o1,-9.08
11,O=C(NCc1cc2n(n1)CCCNC2)C1(c2ccccc2)CCCCC1,0.103
12,Cc1cc(C(F)(F)F)nc(CCNC(C)Cn2ccnc2)n1 (stereo unspecified),-23.4
13,Cc1nc(-c2cn(CCN)nn2)n(-c2ccc3c(c2)CCC3)n1,-4.36
14,CN(Cc1n[nH]c(=O)n1CCc1ccccc1F)S(C)(=O)=O,-1.83
15,Nc1cc(C(=O)NCC2CCN(Cc3cccc(O)c3)C2)ccn1 (stereo unspecified),18.3
16,COCC1CCN(c2nc(C(C)(C)C)nc3c2cnn3C)C1 (stereo unspecified),15.8
17,NC(=O)CN1CC2(CCC1=O)CCN(Cc1ccc(Cl)c(F)c1)CC2,2.58
18,CN1CCC(C)(CN(C)C(=O)c2ccc(CCC(C)(C)O)cc2)C1 (stereo unspecified),-1.78
19,O=C1CCC2(CCOC2)CN1Cc1ccc2nsnc2c1 (stereo unspecified),-3.21
20,O=C(NCCc1ccncc1)c1cccc(S(=O)(=O)NC2CCOC2)c1 (stereo unspecified),5.63
21,Cc1[nH]nc(CCC(=O)NCC2CCCN(C3CCCC3)C2)c1C (stereo unspecified),-5.73
22,COc1ccc2c(=O)n(CC3CCNC3)ccc2c1OC (stereo unspecified),1.63
23,O=C(c1cnc(O)cn1)N1CCC(CN2CCOCC2)CC1,-13.8

row,SMILES,cytotoxicity at 70.5 h [%]
1,CCn1c(CN(C)C)nnc1C1CCN(Cc2cccc(F)c2F)CC1,-1.68
2,COCC(=O)N1CCCC(COc2ccccc2C)C1 (stereo unspecified),12.8
3,O=C(NCCc1cccs1)N1CCCC2(CCC(=O)N(C3CC3)C2)C1 (stereo unspecified),-0.67
4,CCc1cc(N(C)Cc2nonc2C)nc(N2CCOCC2)n1,1.99
5,COc1ncc(CN(C)C(C)c2cccnc2)cn1 (stereo unspecified),9.74
6,Cc1ccccc1-c1noc(-c2ccc(NCC3COCCO3)nc2)n1 (stereo unspecified),-3.64
7,CCOCCn1nc(C)cc1C(=O)N1CC[C@@](O)(COC)C(C)(C)C1,25.9
8,COc1cccc2ncn(C(C)Cn3cccn3)c(=O)c12 (stereo unspecified),-3.99
9,Cc1cncc(C(=O)N2CCNCC2C(=O)Nc2ccc(C)nc2)c1 (stereo unspecified),-3.64
10,CS(=O)(=O)c1ccc(CN2CCCCC2c2cccc(F)c2)cc1 (stereo unspecified),-9.66
11,O=C1CC2(CCN(Cc3ccc(-c4ccn[nH]4)s3)CC2)CN1,-13.8
12,O=C(c1cccc(Cl)c1)N1CCCC(Nc2ccc(F)cc2)C1 (stereo unspecified),2.07
13,Cc1ccsc1CN1CCC(c2cc(C(C)C)n[nH]2)CC1,-3.28
14,CCc1ccc(-c2cn3c(C(=O)N[C@H](C(N)=O)[C@@H](C)O)csc3n2)cc1,15.1
15,CC(=O)C1(c2ccccc2)CCN(C(=O)C2CNCCO2)CC1 (stereo unspecified),-7.25
16,CC(C)CN1CCCC1c1ccc(C(=O)Nc2ccc3[nH]nnc3c2)s1 (stereo unspecified),-0.75
17,CN1[C@H]2CC[C@@H]1CN(C(=O)c1sccc1S(N)(=O)=O)CC2,-4.92
18,COc1cccc(O)c1CN1CCCC(Nc2cccc(F)c2)C1 (stereo unspecified),0.789
19,CCSc1ncc(CN2CC[C@@](O)(COC)C(C)(C)C2)cn1,-18.2
20,COCCn1ccnc1C1CCCN(C(=O)c2ccccc2C#N)C1 (stereo unspecified),0.955
21,Cc1noc(C)c1CCCNC(=O)Nc1ccc2c(c1)CC(=O)N2,-8.94
22,CCCc1cncnc1N1CCCC2(CCC(=O)N(C3CCCC3)C2)C1 (stereo unspecified),-9.78
23,CSCC(=O)N1CCCN(c2ccncc2C)CC1,-8.19

row,SMILES,cytotoxicity at 70.5 h [%]
1,Cc1ccc(C(=O)N2CCC3(CC2)c2ccccc2[C@@H](N)[C@@H]3O)cc1F,-10.1
2,O=C1N(C2CCOCC2)CCCC12CCN(c1ncccc1Cl)C2 (stereo unspecified),-14.5
3,Cc1ccn(CC(=O)N2CC[C@@H](c3ccc4ccccc4c3)[C@H](O)C2)n1,-10.1
4,Cc1nc[nH]c1C(=O)N1CC[C@@H](NC(=O)c2ccccn2)[C@H](O)C1,-1.79
5,CNc1cc(C(=O)N(C)Cc2cc(-c3cccs3)n[nH]2)ccn1,0.513
6,CCc1cc(C(=O)NCC2CCN(Cc3cccc(C)n3)C2)on1 (stereo unspecified),-1.06
7,FC(F)(F)c1ccnc(N2CCCN(Cc3ccccn3)CC2)n1,11.3
8,Cc1ccc(O)c(C(=O)N2C[C@@H](C(=O)O)[C@H](c3ccccc3)C2)c1,0.313
9,CN(CCCC1CCCO1)S(=O)(=O)NCc1ccccc1 (stereo unspecified),10.8
10,CCCc1cc(N2CCC(NCCc3ccc(O)cc3)CC2)nc(C)n1,-4.92
11,CCNC(=O)[C@@H]1C[C@H](N)CN1C(=O)c1cccc(CCC(C)(C)O)c1,-5.42
12,O=C(c1cncc(N2CCCC3(CCNCC3)CC2)n1)N1CCCCC1,8.06
13,Cn1ncnc1-c1ccnc(N2CCC(C(O)c3cccs3)CC2)n1 (stereo unspecified),-10.9
14,N#CC1(c2ccccc2)CCN(C(=O)C2CCCN(CC(N)=O)C2)CC1 (stereo unspecified),1.9
15,CCC1CN(C(=O)c2cncc(C)c2)CCC(=O)N1Cc1ccccc1 (stereo unspecified),-3.22
16,O=C(NCCC1CN(C2CCCC2)CCO1)c1c[nH]c(=O)[nH]c1=O (stereo unspecified),-12.3
17,c1cc(-c2cn[nH]c2)ccc1CN1CCCCC1,13.1
18,CC(C)=CCC1(CO)CCCN(Cc2nccs2)C1 (stereo unspecified),-9.67
19,CCCSCC(=O)N1CCCC(c2nccn2Cc2ccncc2)C1 (stereo unspecified),25.6
20,COC(=O)c1cc(OCC2CCC2)cc(C(=O)N[C@@H](C)CO)c1,-22.2
21,CCN(CC1CCCN(CCc2cccc(OC)c2)C1)C(=O)CN(C)C (stereo unspecified),-0.489
22,Clc1cccc(-c2cccc(N3CCC(NC4CCOCC4)CC3)c2)c1,5.92
23,CCc1nnc(CNC(=O)CCN2CCN(c3cccc(C)c3)CC2)s1,-4.25

row,SMILES,cytotoxicity at 70.5 h [%]
1,Cc1ccc(CSc2nc(N)cc(NCC(=O)N3CCNCC3)n2)cc1,-4.01
2,O=C(COc1ccc2cccnc2c1)N1CCN[C@H]2CS(=O)(=O)C[C@H]21,18.5
3,CN(CCO)c1nc(-c2ccccn2)nc2c1CCNC2,-0.45
4,Cc1ccccc1-n1c(C)cc(=O)[nH]c1=O,26.3
5,CSCc1noc(CN2CC(Cc3ccccc3)CC2=O)n1 (stereo unspecified),-13
6,CC(C)CN1CC2(CCN(C(=O)c3cn4cccnc4n3)CC2)CC1=O,-17.9
7,Cc1ccc(CN2CCN(C(=O)c3ccc(CO)cc3)C(C)C2=O)cc1 (stereo unspecified),-17.6
8,CCc1nnc(CN2CCC3(CC2)Nc2ccccc2NC3=O)o1,19.8
9,Cc1nc(C(C)C)ncc1C(=O)N1CCCC(N2CCCC2)C1 (stereo unspecified),6.69
10,c1cc(C2CCN(c3ncnc4c3CCNCC4)CC2)ccn1,-10.9
11,CSc1ccccc1C(=O)N1CCN(C)C2(CCC(=O)N(C)CC2)C1 (stereo unspecified),-14.6
12,Cc1nc(C2CCN(C[C@H](C)CO)CC2)cc(N2CCOCC2)n1,-0.547
13,O=C(NCc1ccc2nonc2c1)C1CCN(C(=O)C2CCC2)CC1,-6.22
14,Cc1nn(C)cc1-c1ccnc(N2CCCN(CC(C)C)CC2)n1,-6.83
15,CN1CCc2[nH]cnc2C12CCN(Cc1ccc(S(C)(=O)=O)cc1)CC2,-7.39
16,c1ccc(-c2cccc(-c3ccn(CCN4CCCCC4)n3)c2)nc1,13.3
17,COCC[C@]1(O)CCN(CC(=O)NCc2ccccc2C)C[C@H]1C,-2.23
18,NC(=O)C1CCCN(C(=O)c2ccc(-n3ccnc3)cc2)C1 (stereo unspecified),-5.88
19,CCNCCc1nc2cc(F)ccc2[nH]1,-4.56
